Measurements as given in ChEMBL document CHEMBL4507270 (2021).

Experiments:
[1] = test system: ALK tyrosine kinase receptor (Homo sapiens), Q9UM73 [C1156Y]
[2] = target: Aurora kinase A (Homo sapiens) (UniProt O14965)
[3] = target: Serine/threonine-protein kinase B-raf (Homo sapiens) (UniProt P15056)
[4] = target: Calcium/calmodulin-dependent protein kinase type II subunit beta (Homo sapiens) (UniProt Q13554)
[5] = target: Peripheral plasma membrane protein CASK (Homo sapiens) (UniProt O14936)
[6] = target: Cyclin-dependent kinase 13 (Homo sapiens) (UniProt Q14004)
[7] = target: Cyclin-dependent kinase-like 1 (Homo sapiens) (UniProt Q00532)
Sequence of Cyclin-dependent kinase-like 1 (Homo sapiens) (Q00532 whole entry): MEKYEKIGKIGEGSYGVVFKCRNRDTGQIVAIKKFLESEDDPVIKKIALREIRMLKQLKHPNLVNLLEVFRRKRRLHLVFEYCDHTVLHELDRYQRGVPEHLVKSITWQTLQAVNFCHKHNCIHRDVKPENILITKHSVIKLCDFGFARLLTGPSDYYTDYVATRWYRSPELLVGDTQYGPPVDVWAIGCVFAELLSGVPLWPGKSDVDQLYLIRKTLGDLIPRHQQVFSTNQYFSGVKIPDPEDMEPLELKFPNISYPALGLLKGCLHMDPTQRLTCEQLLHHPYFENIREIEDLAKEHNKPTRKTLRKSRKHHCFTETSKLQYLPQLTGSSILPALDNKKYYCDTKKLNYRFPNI

[8] = target: Macrophage colony-stimulating factor 1 receptor (Homo sapiens) (UniProt P07333)
[9] = target: Casein kinase I isoform gamma-2 (Homo sapiens) (UniProt P78368)
[10] = target: Ephrin type-A receptor 1 (Homo sapiens) (UniProt P21709)
[11] = target: Ephrin type-A receptor 3 (Homo sapiens) (UniProt P29320)
[12] = target: Ephrin type-A receptor 7 (Homo sapiens) (UniProt Q15375)
[13] = target: Receptor tyrosine-protein kinase erbB-2 (Homo sapiens) (UniProt P04626)
[14] = target: Inhibitor of nuclear factor kappa-B kinase subunit alpha (Homo sapiens) (UniProt O15111)
[15] = target: Inhibitor of nuclear factor kappa-B kinase subunit epsilon (Homo sapiens) (UniProt Q14164)
[16] = target: Interleukin-1 receptor-associated kinase 1 (Homo sapiens) (UniProt P51617)
[17] = target: Tyrosine-protein kinase JAK1 (Homo sapiens) (UniProt P23458)
[18] = target: Tyrosine-protein kinase JAK3 (Homo sapiens) (UniProt P52333)
[19] = target: Mast/stem cell growth factor receptor Kit (Homo sapiens) (UniProt P10721)
[20] = target: Mitogen-activated protein kinase kinase kinase 13 (Homo sapiens) (UniProt O43283)
Sequence of Mitogen-activated protein kinase kinase kinase 13 (Homo sapiens) (O43283 whole entry): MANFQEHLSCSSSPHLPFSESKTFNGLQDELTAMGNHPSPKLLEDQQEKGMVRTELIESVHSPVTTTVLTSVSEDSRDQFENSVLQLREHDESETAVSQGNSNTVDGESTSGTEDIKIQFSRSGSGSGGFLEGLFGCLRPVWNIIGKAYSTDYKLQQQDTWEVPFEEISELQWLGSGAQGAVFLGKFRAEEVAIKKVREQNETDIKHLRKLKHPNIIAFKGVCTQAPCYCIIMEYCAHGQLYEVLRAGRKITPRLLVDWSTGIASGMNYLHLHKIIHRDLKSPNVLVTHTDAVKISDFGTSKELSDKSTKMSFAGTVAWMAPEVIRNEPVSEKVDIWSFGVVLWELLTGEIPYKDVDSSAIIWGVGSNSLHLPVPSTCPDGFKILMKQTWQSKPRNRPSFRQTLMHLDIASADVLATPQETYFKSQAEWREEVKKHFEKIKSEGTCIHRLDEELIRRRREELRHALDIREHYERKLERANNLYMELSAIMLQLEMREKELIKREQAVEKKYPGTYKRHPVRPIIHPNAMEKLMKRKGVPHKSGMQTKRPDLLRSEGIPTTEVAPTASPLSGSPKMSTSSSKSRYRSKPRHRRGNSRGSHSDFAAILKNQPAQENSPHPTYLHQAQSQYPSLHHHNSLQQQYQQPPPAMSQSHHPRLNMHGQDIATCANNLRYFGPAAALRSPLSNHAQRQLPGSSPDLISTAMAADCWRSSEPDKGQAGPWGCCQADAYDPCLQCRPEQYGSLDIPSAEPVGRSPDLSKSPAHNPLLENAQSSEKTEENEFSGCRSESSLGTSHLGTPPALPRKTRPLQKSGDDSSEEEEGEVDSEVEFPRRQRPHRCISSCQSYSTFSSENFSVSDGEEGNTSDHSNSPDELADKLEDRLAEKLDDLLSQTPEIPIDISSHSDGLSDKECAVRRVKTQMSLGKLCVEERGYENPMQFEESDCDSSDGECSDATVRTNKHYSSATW

[21] = target: Mitogen-activated protein kinase kinase kinase 1 (Homo sapiens) (UniProt Q13233)
[22] = target: Dual specificity mitogen-activated protein kinase kinase 5 (Homo sapiens) (UniProt Q13163)
[23] = target: Hepatocyte growth factor receptor (Homo sapiens) (UniProt P08581)
[24] = target: Misshapen-like kinase 1 (Homo sapiens) (UniProt Q8N4C8)
Sequence of Misshapen-like kinase 1 (Homo sapiens) (Q8N4C8 whole entry, looked up): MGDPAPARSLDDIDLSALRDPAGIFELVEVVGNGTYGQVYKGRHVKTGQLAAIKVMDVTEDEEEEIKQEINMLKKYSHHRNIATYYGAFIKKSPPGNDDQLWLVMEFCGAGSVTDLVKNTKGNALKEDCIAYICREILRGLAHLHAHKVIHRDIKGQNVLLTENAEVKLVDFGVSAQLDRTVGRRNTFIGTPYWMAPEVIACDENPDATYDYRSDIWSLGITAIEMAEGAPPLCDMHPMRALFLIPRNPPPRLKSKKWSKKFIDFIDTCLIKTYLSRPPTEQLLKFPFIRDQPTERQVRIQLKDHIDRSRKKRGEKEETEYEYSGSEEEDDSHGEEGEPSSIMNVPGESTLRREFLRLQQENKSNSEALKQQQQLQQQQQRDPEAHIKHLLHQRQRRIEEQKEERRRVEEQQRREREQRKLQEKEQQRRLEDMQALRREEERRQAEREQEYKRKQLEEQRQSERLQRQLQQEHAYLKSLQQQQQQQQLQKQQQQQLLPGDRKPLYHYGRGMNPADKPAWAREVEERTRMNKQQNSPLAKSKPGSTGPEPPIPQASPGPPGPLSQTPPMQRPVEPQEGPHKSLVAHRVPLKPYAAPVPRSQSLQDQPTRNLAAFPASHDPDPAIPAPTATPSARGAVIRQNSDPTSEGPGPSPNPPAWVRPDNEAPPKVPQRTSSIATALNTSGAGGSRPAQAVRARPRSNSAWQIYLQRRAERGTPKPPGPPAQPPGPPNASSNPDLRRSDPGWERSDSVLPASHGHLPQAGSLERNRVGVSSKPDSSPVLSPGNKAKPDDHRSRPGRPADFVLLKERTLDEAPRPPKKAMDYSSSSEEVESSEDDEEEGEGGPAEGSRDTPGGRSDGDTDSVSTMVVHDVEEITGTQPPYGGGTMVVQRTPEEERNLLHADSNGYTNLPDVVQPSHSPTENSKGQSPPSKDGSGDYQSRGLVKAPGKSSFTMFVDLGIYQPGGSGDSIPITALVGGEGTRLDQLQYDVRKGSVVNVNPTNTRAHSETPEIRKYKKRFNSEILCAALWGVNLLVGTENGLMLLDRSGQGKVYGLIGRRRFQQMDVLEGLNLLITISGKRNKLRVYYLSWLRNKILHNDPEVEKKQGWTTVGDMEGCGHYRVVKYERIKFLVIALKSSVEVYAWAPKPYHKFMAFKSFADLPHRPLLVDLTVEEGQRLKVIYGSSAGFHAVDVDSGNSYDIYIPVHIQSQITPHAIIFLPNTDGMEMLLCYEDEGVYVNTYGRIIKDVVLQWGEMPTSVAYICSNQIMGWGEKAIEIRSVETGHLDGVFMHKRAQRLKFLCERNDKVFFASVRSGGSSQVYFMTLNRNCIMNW

[25] = target: Myosin light chain kinase, smooth muscle (Homo sapiens) (UniProt Q15746)
[26] = target: Serine/threonine-protein kinase Nek11 (Homo sapiens) (UniProt Q8NG66)
[27] = target: Serine/threonine-protein kinase OSR1 (Homo sapiens) (UniProt O95747)
[28] = target: Serine/threonine-protein kinase PAK 4 (Homo sapiens) (UniProt O96013)
[29] = target: Cyclin-dependent kinase 17 (Homo sapiens) (UniProt Q00537)
[30] = target: Phosphatidylinositol 4-kinase beta (Homo sapiens) (UniProt Q9UBF8)
[31] = target: cAMP-dependent protein kinase catalytic subunit alpha (Homo sapiens) (UniProt P17612)
[32] = target: Serine/threonine-protein kinase PknB (Mycobacterium tuberculosis) (UniProt P9WI81)
[33] = target: RAF proto-oncogene serine/threonine-protein kinase (Homo sapiens) (UniProt P04049)
[34] = target: Tyrosine-protein kinase Srms (Homo sapiens) (UniProt Q9H3Y6)
[35] = target: SRSF protein kinase 1 (Homo sapiens) (UniProt Q96SB4)
Sequence of SRSF protein kinase 1 (Homo sapiens) (Q96SB4 whole entry): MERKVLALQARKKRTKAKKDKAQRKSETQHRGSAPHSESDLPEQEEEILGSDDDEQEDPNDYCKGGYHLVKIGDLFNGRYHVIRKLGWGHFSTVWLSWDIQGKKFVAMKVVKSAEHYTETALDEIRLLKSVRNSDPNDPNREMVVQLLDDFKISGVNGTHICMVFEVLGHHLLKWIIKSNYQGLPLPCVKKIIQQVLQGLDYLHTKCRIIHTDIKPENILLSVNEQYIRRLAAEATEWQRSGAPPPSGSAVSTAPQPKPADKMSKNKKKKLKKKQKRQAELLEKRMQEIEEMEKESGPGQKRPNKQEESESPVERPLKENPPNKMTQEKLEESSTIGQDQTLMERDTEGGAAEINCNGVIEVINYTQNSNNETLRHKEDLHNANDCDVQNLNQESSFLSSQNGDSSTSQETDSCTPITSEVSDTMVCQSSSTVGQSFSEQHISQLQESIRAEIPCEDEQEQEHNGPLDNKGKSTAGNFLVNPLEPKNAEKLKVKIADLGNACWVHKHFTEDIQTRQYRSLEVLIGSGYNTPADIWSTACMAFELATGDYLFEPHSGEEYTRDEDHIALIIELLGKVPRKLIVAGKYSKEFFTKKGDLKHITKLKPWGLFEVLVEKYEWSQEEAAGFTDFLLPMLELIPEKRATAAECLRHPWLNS

[36] = target: Serine/threonine-protein kinase tousled-like 1 (Homo sapiens) (UniProt Q9UKI8)
[37] = target: Non-receptor tyrosine-protein kinase TNK1 (Homo sapiens) (UniProt Q13470)
[38] = target: Activated CDC42 kinase 1 (Homo sapiens) (UniProt Q07912)
[39] = target: Tyrosine-protein kinase receptor TYRO3 (Homo sapiens) (UniProt Q06418)
[40] = target: Serine/threonine-protein kinase ULK2 (Homo sapiens) (UniProt Q8IYT8)
Sequence of Serine/threonine-protein kinase ULK2 (Homo sapiens) (Q8IYT8 whole entry): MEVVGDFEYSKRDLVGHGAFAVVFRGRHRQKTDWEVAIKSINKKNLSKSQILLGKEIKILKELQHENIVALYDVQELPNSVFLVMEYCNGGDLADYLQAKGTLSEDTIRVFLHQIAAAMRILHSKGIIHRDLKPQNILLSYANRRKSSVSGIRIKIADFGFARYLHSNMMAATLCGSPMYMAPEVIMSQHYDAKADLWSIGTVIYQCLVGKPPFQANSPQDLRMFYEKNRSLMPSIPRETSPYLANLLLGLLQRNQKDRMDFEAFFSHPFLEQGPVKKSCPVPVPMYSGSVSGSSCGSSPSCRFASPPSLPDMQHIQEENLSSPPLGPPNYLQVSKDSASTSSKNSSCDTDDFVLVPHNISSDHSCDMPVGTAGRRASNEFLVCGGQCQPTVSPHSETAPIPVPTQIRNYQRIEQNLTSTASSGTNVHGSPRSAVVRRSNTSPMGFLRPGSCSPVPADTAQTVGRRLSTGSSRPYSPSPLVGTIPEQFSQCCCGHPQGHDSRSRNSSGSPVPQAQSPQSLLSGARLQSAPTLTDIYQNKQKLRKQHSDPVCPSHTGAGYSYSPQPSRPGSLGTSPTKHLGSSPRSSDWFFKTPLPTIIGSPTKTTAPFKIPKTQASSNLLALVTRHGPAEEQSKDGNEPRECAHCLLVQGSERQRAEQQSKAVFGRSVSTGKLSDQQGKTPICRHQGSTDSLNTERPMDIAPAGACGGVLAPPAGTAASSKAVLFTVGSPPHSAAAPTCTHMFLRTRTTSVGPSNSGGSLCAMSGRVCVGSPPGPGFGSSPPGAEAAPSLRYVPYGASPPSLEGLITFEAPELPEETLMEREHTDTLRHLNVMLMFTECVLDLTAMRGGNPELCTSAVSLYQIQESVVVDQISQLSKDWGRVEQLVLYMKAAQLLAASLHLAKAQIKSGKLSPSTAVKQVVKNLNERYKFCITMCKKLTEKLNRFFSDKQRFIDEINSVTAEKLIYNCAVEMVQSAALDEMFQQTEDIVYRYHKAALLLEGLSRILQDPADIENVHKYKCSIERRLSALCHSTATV

[41] = target: Serine/threonine-protein kinase 25 (Homo sapiens) (UniProt O00506)
[42] = target: Sodium-dependent noradrenaline transporter (Homo sapiens, UniProt P23975); conditions: Compound concentration 10.0 uM
[43] = target: Alpha-2C adrenergic receptor (Homo sapiens) (UniProt P18825); conditions: Compound concentration 10.0 uM
Sequence of Alpha-2C adrenergic receptor (Homo sapiens) (P18825 whole entry): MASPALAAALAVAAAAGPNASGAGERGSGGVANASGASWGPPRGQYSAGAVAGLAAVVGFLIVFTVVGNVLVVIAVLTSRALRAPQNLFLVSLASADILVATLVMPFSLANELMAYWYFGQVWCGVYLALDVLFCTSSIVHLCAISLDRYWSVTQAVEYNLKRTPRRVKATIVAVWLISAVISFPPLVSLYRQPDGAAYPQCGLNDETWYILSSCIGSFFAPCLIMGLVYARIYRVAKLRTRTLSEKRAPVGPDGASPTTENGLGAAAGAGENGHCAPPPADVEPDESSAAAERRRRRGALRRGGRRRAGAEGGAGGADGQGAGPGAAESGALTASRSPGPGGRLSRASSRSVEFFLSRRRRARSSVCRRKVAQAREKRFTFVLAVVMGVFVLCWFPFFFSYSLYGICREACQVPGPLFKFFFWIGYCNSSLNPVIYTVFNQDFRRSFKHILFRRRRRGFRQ

[44] = target: Muscarinic acetylcholine receptor M1 (Homo sapiens) (UniProt P11229); conditions: Compound concentration 10.0 uM
[45] = target: Sigma non-opioid intracellular receptor 1 (Homo sapiens) (UniProt Q99720); conditions: Compound concentration 10.0 uM
Sequence of Sigma non-opioid intracellular receptor 1 (Homo sapiens) (Q99720 whole entry): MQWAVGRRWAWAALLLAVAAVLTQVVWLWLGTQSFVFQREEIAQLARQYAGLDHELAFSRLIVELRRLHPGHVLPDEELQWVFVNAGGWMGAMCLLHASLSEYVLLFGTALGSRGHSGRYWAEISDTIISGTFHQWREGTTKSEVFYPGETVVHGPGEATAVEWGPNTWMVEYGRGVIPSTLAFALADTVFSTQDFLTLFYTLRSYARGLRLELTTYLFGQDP

[46] = Compound concentration 1000.0 nM
[47] = Compound concentration 100.0 nM

Cc1cc(NC(=O)c2cccc(S(F)(F)(F)(F)F)c2)cc(-n2ccn3nc(-c4cccnc4)cc23)c1 [BAY-309]
inactive: residual activity [1, 46] 100% | residual activity [2, 46] 84.9% | residual activity [4, 46] 100% | residual activity [5, 46] 68.1% | residual activity [6, 46] 64.2% | residual activity [7, 46] 84.5% | residual activity [8, 46] 89% | residual activity [9, 46] 95.4% | residual activity [10, 46] 100% | residual activity [11, 46] 100% | residual activity [12, 46] 91.2% | residual activity [13, 46] 100% | residual activity [14, 46] 71.1% | residual activity [15, 46] 100% | residual activity [16, 46] 96% | residual activity [18, 46] 96.9% | residual activity [19, 46] 89.5% | residual activity [20, 46] 100% | residual activity [21, 46] 90% | residual activity [23, 46] 77.3% | residual activity [24, 46] 82% | residual activity [25, 46] 91.8% | residual activity [26, 46] 57.5% | residual activity [27, 46] 100% | residual activity [28, 46] 91.8% | residual activity [29, 46] 83.8% | residual activity [30, 46] 78.6% | residual activity [31, 46] 100% | residual activity [32, 46] 63.7% | residual activity [34, 46] 86.9% | residual activity [35, 46] 100% | residual activity [36, 46] 100% | residual activity [37, 46] 95% | residual activity [38, 46] 100% | residual activity [39, 46] 88.4% | residual activity [40, 46] 73.7% | residual activity [41, 46] 59.5% | inhibition [43] -5.04% | inhibition [44] 9.28% | inhibition [45] 19.3%
active: residual activity [3, 46] 43.5% | residual activity [17, 46] 28.7% | residual activity [22, 46] 35.9% | residual activity [33, 46] 29.4% | inhibition [42] 62.9%

Cc1cc(C)c(-n2ccn3nc(-c4cccnc4)cc23)cc1NC(=O)c1cc(C#N)cc(S(F)(F)(F)(F)F)c1 [BAY-826]
inactive: residual activity [1, 47] 76.6% | residual activity [2, 47] 75.9% | residual activity [3, 47] 89.4% | residual activity [4, 47] 87.5% | residual activity [5, 47] 86.6% | residual activity [6, 47] 59% | residual activity [7, 47] 77.4% | residual activity [8, 47] 92.9% | residual activity [9, 47] 77.6% | residual activity [10, 47] 100% | residual activity [11, 47] 89.8% | residual activity [12, 47] 92% | residual activity [13, 47] 84.2% | residual activity [14, 47] 100% | residual activity [15, 47] 59.9% | residual activity [16, 47] 87.3% | residual activity [17, 47] 93.1% | residual activity [18, 47] 95.3% | residual activity [20, 47] 97.9% | residual activity [21, 47] 78.3% | residual activity [22, 47] 91.8% | residual activity [23, 47] 82.8% | residual activity [24, 47] 88.9% | residual activity [25, 47] 57.7% | residual activity [26, 47] 86.1% | residual activity [27, 47] 87% | residual activity [28, 47] 70.4% | residual activity [29, 47] 99.3% | residual activity [30, 47] 64.7% | residual activity [31, 47] 95.6% | residual activity [32, 47] 62.5% | residual activity [33, 47] 83.8% | residual activity [34, 47] 67.4% | residual activity [35, 47] 67.4% | residual activity [36, 47] 89.1% | residual activity [37, 47] 87.6% | residual activity [38, 47] 83.6% | residual activity [39, 47] 72.4% | residual activity [40, 47] 100% | residual activity [41, 47] 79.1% | inhibition [42] 1.95% | inhibition [43] -7.91% | inhibition [44] 24.8% | inhibition [45] -4.84%
active: residual activity [19, 47] 44.5%
